Results on seven compounds are retold here after patent US20260365690A1, “COMPOUND FOR RNA CAPPING AND USE THEREOF” (GUANGZHOU HENOVCOM BIOSCIENCE CO., LTD., priority 2022, published 2026).

Assay [1] has as its system mRNA. Put plainly: mRNA synthesis by in vitro transcription (co-transcriptional capping), final product mass. The format is biochemical. The note with it: obtained from 20 μL mRNA synthesis reaction system; T7 RNA Polymerase; cap analog 4 mM; 37 °C, 2 to 3 hours. Here is the method:
(§1) 1) The plasmids were linearized and the DNA templates were purified.
(§2) 2) The mRNA was synthesized by in vitro transcription, using 11 cap structures of the present disclosure, positive control CleanCap®AG (3′OMe) (Trilink, N-7413), negative control (uncapped mRNA) and blank control (DNase/RNase-Free water), respectively.
(§3) The reaction was carried out at 37 °C for 2 to 3 hours. TURBO DNase digestion was carried out for 15 minutes. The mRNA was precipitated by LiC for 30 min or more or overnight, and the mRNA precipitate was washed with 75% ethanol, dried briefly to evaporate the ethanol, and the mRNA was redissolved with RNase-Free water.
3) The transcription product was purified, and the reaction yield was calculated to provide the test results of some compounds, as shown in Table 2.

For assay [2], the system named is mRNA. Put plainly: Capping efficiency of mRNA by LC-MS. The format is biochemical. The settings on record: cap analog 4 mM in in vitro transcription, RNase H cleaved 5′ fragment. Here is the method: as §1, §2, §3
Gradient annealing was performed in a PCR instrument: […]
5) Magnetic beads were pre-treated and bound to probes.
100 μL of magnetic beads were taken and placed on a magnetic stand. The storage solution was discarded, and 100 μL of 1*BW solution was added thereto. After mixing well, the mixture was placed on the magnetic stand, and the supernatant was discarded. The wash was carried out three times in the same way. 100 μL of wash A buffer was added thereto. After mixing well, the mixture was placed on the magnetic stand, and the supernatant was discarded. The wash was carried out three times in the same way. 100 μL of wash B buffer was added thereto. After mixing well, the mixture was placed on the magnetic stand, and the supernatant was discarded. The wash was carried out three times in the same way. 120 μL of the sample was added to the magnetic bead solution and incubated for 30 min at room temperature with gentle mixing while incubating.
6) The mRNA was cut to obtain the 5′ single-stranded sequence of mRNA bound to probes.
20 μL of RNase H (5 U/μL) was added thereto, incubated at 37 °C for 3 hours, and mixed well every half hour. 100 μL of 1*BW solution was added thereto. After mixing well, the mixture was placed on the magnetic stand, and the supernatant was discarded. The wash was carried out three times in the same way. 100 μL of deionized water solution was added thereto. After mixing well, the mixture was placed on the magnetic stand, and the supernatant was discarded. The wash was carried out three times in the same way. 100 μL of 75% methanol was added thereto at 80 °C, then the mixture was heated to 80 °C on a heating plate and held for 3 min, placed on the magnetic stand, and the supernatant was aspirated. The sample was dried at room temperature for 45 min to 10 μL using an evaporative centrifuge and then resuspended in 50 μL of 100 μM EDTA/1% MeOH for LC-MS analysis.
LC-MS was used to analyze the capping efficiency of mRNA synthesized by analogues with different cap structures. The capping efficiency results of some compounds in the detection results are now provided.

For assay [3], the system named is HEK293T cells. Put plainly: Expression efficiency of capped luciferase mRNAs in HEK293T cells. It is filed as cell-based. The settings on record: 6 h after transfection of capped luciferase mRNA into HEK293T cells; ratio to N-7413 (= 1). The method, then: 2. Evaluation of Expression Efficiency of Different Capped Luciferase mRNAs in HEK293T Cells
1) HNE293T cells were cultured in DMEM medium containing 10% FBS and penicillin/streptomycin at 37 °C and 5% CO2.
2) The cultured HEK293T cells were spread in a 96-well plate with 1.25×10^4 cells per well.
3) After the cells completely adhered to the wall, 0.5 μg of a mixture of mRNA sample and Polyplus jetMESSENGER was added to each well of cells, and cultured at 37 °C and 5% CO2 for 6 hours.
4) The growth medium was removed from the cells to be tested and the cells were rinsed with PBS. After centrifugation to remove PBS, 50 μL of 1× lysis buffer was added thereto, and cells and all liquid were transferred to a microcentrifuge tube, and then centrifuged at 12000×g and 4 °C for 2 min.
5) The supernatant was transferred to a new tube. Fluorescence readings were detected using the ONE-Glo Luciferase Assay System Kit.
3. All compounds, N-7413, negative control and blank control were tested under the same conditions, and some experimental results in the test results are shown in Table 5.
The relative fluorescence reading results (6 h) after transfection of capped mRNA into 293T cells are now provided, as shown in Table 5. It can be seen from the FIGURE that the mRNA capped by the compound of the present disclosure has a high expression level, and some cap structures can enable higher expression efficiency of mRNA compared to N-7413.

Compound `CO[C@@H]1[C@H](OP(=O)(O)OC[C@H]2O[C@@H](n3cnc4c(=O)[nH]c(N)nc43)[C@H](O)[C@@H]2O)[C@@H](COP(=O)(O)OP(=O)(O)OP(=O)(O)OC[C@H]2O[C@@H](n3c[n+](C)c4c(=O)[nH]c(N)nc43)[C@H](O)[C@@H]2C)O[C@H]1n1cnc2c(N)ncnc21` [Compound 1] yielded a Final product mass in assay [1] of 96 µg. In assay [2], the Capping efficiency entry is recorded as “A (100% > A ≥ 95%)”. Also, in assay [3], the Relative fluorescence reading stood at 1.74.
Taken in the same sequence, the figures for `CCC[C@H]1[C@@H](O)[C@H](n2c[n+](C)c3c(=O)[nH]c(N)nc32)O[C@@H]1COP(=O)(O)OP(=O)(O)OP(=O)(O)OC[C@H]1O[C@@H](n2cnc3c(N)ncnc32)[C@H](OC)[C@@H]1OP(=O)(O)OC[C@H]1O[C@@H](n2cnc3c(=O)[nH]c(N)nc32)[C@H](O)[C@@H]1O.[Na+]` [Compound 5] were 117 µg, “A (100% > A ≥ 95%)” and 1.85.
With `CO[C@@H]1[C@H](OP(=O)(O)OC[C@H]2O[C@@H](n3cnc4c(=O)[nH]c(N)nc43)[C@H](O)[C@@H]2O)[C@@H](COP(=O)(O)OP(=O)(O)OP(=O)(O)OC[C@H]2O[C@@H](n3c[n+](C)c4c(=O)[nH]c(N)nc43)[C@H](O)[C@@H]2CCF)O[C@H]1n1cnc2c(N)ncnc21` [Compound 19], the Final product mass in assay [1] was found to be 137 µg. Besides, in assay [2], the Capping efficiency entry is on record as “A (100% > A ≥ 95%)”. Besides, the Relative fluorescence reading in assay [3] was 1.52.
For the compound `CO[C@@H]1[C@H](OCOC[C@H]2O[C@@H](n3cnc4c(=O)[nH]c(N)nc43)[C@H](O)[C@@H]2O)[C@@H](COP(=O)(O)OP(=O)(O)OP(=O)(O)OC[C@H]2O[C@@H](n3c[n+](C)c4c(=O)[nH]c(N)nc43)[C@H](O)[C@@H]2C)O[C@H]1n1cnc2c(N)ncnc21` [Compound 57], the Final product mass in assay [1] came to 90 µg. Moreover, the Capping efficiency result in assay [2] is on record as “C (90% > C ≥ 80%)”. The Relative fluorescence reading in assay [3] came out at 0.88.
On to `CO[C@@H]1[C@H](OP(=O)(O)OC[C@H]2O[C@@H](n3cnc4c(=O)[nH]c(N)nc43)[C@H](O)[C@@H]2O)[C@@H](COP(=O)(O)OP(=O)([O-])OP(=O)(O)OC[C@H]2O[C@@H](n3c[n+](C)c4c(=O)[nH]c(N)nc43)[C@H](O)[C@@H]2C(=O)N(C)C)O[C@H]1n1cnc2c(N)ncnc21` [Compound 193], for which, in assay [1], the Final product mass stood at 105 µg. Moreover, in assay [2], the Capping efficiency result is given as “A (100% > A ≥ 95%)”. In addition, the Relative fluorescence reading in assay [3] is 1.64.
As to `CO[C@@H]1[C@H](OP(=O)(O)OC[C@H]2O[C@@H](n3cnc4c(=O)[nH]c(N)nc43)[C@H](O)[C@@H]2O)[C@@H](COP(=O)(O)OP(=O)(O)OP(=O)(O)OC[C@H]2O[C@@H](n3c[n+](C)c4c(=O)[nH]c(N)nc43)[C@H](O)[C@@H]2NC(C)=O)O[C@H]1n1cnc2c(N)ncnc21` [Compound 289], in assay [1], the Final product mass was 113 µg. In addition, in assay [2], the Capping efficiency entry is given as “A (100% > A ≥ 95%)”. Besides, the Relative fluorescence reading in assay [3] turned out to be 1.70.
Compound `C=CC[C@H]1[C@@H](O)[C@H](n2c[n+](C)c3c(=O)[nH]c(N)nc32)O[C@@H]1COP(=O)(O)OP(=O)(O)OP(=O)(O)OC[C@H]1O[C@@H](n2cnc3c(N)ncnc32)[C@H](OC)[C@@H]1OP(=O)(O)OC[C@H]1O[C@@H](n2cnc3c(=O)[nH]c(N)nc32)[C@H](O)[C@@H]1O` [Compound 710] gave a Final product mass in assay [1] of 108 µg. Moreover, the Capping efficiency result in assay [2] was “A (100% > A ≥ 95%)”. In addition, the Relative fluorescence reading in assay [3] is on record as 1.90.
